Assays:
[1] = Agonist activity at mu opioid receptor in guinea pig ileum assessed as inhibition of electrically-stimulated muscle contraction
Melanocortin receptor 4 = Melanocortin receptor 4 (Homo sapiens, UniProt P32245); test: Displacement of Eu-NDP-alphaMSH from human MC4 receptor expressed in human HEK293 cells
Chain of Melanocortin receptor 4 (P32245 whole entry): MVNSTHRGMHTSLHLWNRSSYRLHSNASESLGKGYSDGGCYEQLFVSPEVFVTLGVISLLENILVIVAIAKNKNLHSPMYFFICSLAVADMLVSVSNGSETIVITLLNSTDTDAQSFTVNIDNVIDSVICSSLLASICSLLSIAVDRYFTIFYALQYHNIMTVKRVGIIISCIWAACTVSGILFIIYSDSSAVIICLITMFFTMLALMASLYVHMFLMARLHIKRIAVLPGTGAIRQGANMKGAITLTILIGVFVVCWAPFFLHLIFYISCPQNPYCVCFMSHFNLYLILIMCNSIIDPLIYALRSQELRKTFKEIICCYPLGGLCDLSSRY

Compound	IC50 [1]	IC50 (Melanocortin receptor 4)
Cc1cc(O)cc(C)c1C[C@H](N)C(=O)N1CC(=O)N[C@@H](Cc2cnc[nH]2)C(=O)N[C@H](Cc2ccccc2)C(=O)N[C@@H](CCCN=C(N)N)C(=O)N[C@@H](Cc2c[nH]c3ccccc23)C(=O)N[C@H](C(=O)N[C@@H](CC(=O)O)C(=O)N[C@@H](Cc2ccccc2)C(N)=O)CSSC[C@@H](N)C1=O [(S)-3-((4R,7S,10S,13R,16S,22S)-16-((1H-imidazol-5-yl)methyl)-7-((1H-indol-3-yl)methyl)-22-amino-20-((S)-2-amino-3-(4-hydroxy-2,6-dimethylphenyl)propanoyl)-13-benzyl-10-(3-guanidinopropyl)-6,9,12,15,18,21-hexaoxo-1,2-dithia-5,8,11,14,17,20-hexaazacyclotricosane-4-carboxamido)-4-((S)-1-amino-1-oxo-3-phenylpropan-2-ylamino)-4-oxobutanoic acid]	190 nM	–
CCCC[C@H](NC(=O)[C@H](Cc1c[nH]c2ccccc12)NC(=O)[C@H](CCCN=C(N)N)NC(=O)[C@@H](Cc1ccc2ccccc2c1)NC(=O)[C@H](Cc1cnc[nH]1)NC(=O)[C@H](Cc1ccccc1)NC(=O)[C@@H](C)NC(=O)[C@@H](N)Cc1ccc(O)cc1)C(=O)N[C@@H](CC(=O)O)C(=O)N[C@@H](Cc1ccccc1)C(N)=O [(3S,6S,9S,12S,15R,18S,21S,24R,27S)-18-((1H-imidazol-5-yl)methyl)-9-((1H-indol-3-yl)methyl)-27-amino-3-((S)-1-amino-1-oxo-3-phenylpropan-2-ylcarbamoyl)-21-benzyl-6-butyl-12-(3-guanidinopropyl)-28-(4-hydroxyphenyl)-24-methyl-15-(naphthalen-2-ylmethyl)-5,8,11,14,17,20,23,26-octaoxo-4,7,10,13,16,19,22,25-octaazaoctacosan-1-oic acid]	–	631 nM
